Key:
Type in all cases: cell-based
[1] = tested on: Type III protein secretion of ExoU by P. aeruginosa PA103; assay: Tertiary assay: Type III-dependent secretion of ExoU by P. aeruginosa PA103; conditions: Pseudomonas aeruginosa, read-out: ExoU IC50(uM)
Summary of the method: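 PA103 grown in deferrated medium with nitrilotriacetic acid to induce Type III secretion, with or without inhibitor, over a prolonged growth period. Supernatant proteins concentrated by ammonium sulfate precipitation, separated by SDS-PAGE, Colloidal Blue-stained; 73.9 kDa ExoU band quantified by imaging relative to untreated controls.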

[2] = tested on: SPI1 type III protein secretion of SipB by S. enterica; assay: Secondary assay: Type III-dependent protein secretion of the SipB polypeptide by S. enterica; conditions: Salmonella enterica, read-out: SipB IC50(uM)
Description: Secondary assay: Type III-dependent protein secretion of the SipB polypeptide by S. enterica. The SipB protein of S. enterica is another effector of the SPI1 type III protein secretion system from S. enterica. In this cell-based procedure, the Type III-dependent secretion of SipB from the bacterial cytoplasm to the extracellular medium was measured through its reactivity with a cognate mouse monoclonal.
Salmonella enterica cells growing either in the presence or in the absence of inhibitors are induced for the production of SipB. Following an established period of growth the cells are sedimented and the amount of SipB present in the supernatant is quantified with a scanning imager following application of immunoblot techniques. Detection may employ an anti-SipB mouse monoclonal antibody (e.g., obtained from Jorge Galan, SUNY at Stony Brook, N.Y.) followed by treatment with commercially available sheep anti-mouse polyclonal antibody conjugated with horseradish peroxidase. Thereafter the membrane is treated with a peroxidase chemiluminescent substrate and exposed to film for an appropriate exposure time. Inhibition may be measured relative to untreated controls.

[3] = tested on: SPI1 type III protein secretion of SopE'-'Bla by Salmonella enterica; assay: Primary assay: Type III protein secretion of the chimeric SopE'-'Bla polypeptide by Salmonella enterica; conditions: read-out: SopE IC50(uM)
Summary of the method: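 S. enterica grown under SPI1-favouring conditions was induced to express SopE′-′Bla (SopE secretion signal fused to signal-less TEM-1 β-lactamase) and cultured with or without compound for a set time. Secreted reporter was quantified by colorimetric hydrolysis of cell-impermeant nitrocefin added to the cultures.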

Question: `O=C(N[C@@H](CSCc1ccccc1)C(=O)O)c1cc(N2CCN(c3ccccc3)CC2)nc(Cl)n1` [Compound 26, (R)-3-Benzylsulfanyl-2-{[2-chloro-6-(4-phenyl-piperazin-1-yl)pyrimidine-4-carbonyl]amino}propionic acid] was tested. Which IC50 [1] did it give?
Answer: > 100 µM

Question: What about the IC50 [2] of the same compound?
Answer: 46.8 µM

Question: And the IC50 [3]?
Answer: 50.1 µM

Question: What does the source list for `CC1CCN(c2nc(C(=O)N[C@@H](CSCc3ccccc3)C(=O)O)cc(N3CCN(c4ccccc4)CC3)n2)CC1` [Compound 27, (R)-3-Benzylsulfanyl-2-{[2-(4-methylpiperidin-1-yl)-6-(4-phenyl-piperazin-1-yl)-pyrimidine-4-carbonyl]amino}propionic acid]?
Answer: IC50 [1]: > 100 µM; IC50 [2]: 8.8 µM; IC50 [3]: 5.3 µM

Question: How did the IC50 [1] turn out when `C[C@@H](OCc1ccccc1)[C@H](NC(=O)c1cc(N2CCCCC2)nc(N2CCC(c3ccccc3)CC2)n1)C(=O)O` [Compound 30, (2S,3R)-3-Benzyloxy-2-{[2-(4-phenylpiperidin-1-yl)-6-piperidin-1-yl-pyrimidine-4-carbonyl]amino}butyric acid] was run?
Answer: > 100 µM

Question: And the IC50 [2]?
Answer: 17.9 µM

Question: What about the IC50 [3] of the same compound?
Answer: 4.6 µM

Question: How did the IC50 [1] turn out when `O=C(N[C@@H](COCc1ccccc1)C(=O)O)c1cc(-c2ccc(Cl)c(Cl)c2)nc(N2CCN(c3ccccc3)CC2)n1` [Compound 32, (S)-3-Benzyloxy-2-{[6-(3,4-dichlorophenyl)-2-(4-phenyl-piperazin-1-yl)-pyrimidine-4-carbonyl]amino}propionic acid] was run?
Answer: 40.7 µM

Question: And the IC50 [2]?
Answer: 5.7 µM

Question: What about the IC50 [3] of the same compound?
Answer: 3.2 µM

Question: How did the IC50 [1] turn out when `Cc1cc(C(=O)NC(CSCc2ccccc2)C(=O)O)nc(-c2ccc(-c3ccccc3)cc2)n1` (stereo not drawn) [Compound 35, 3-Benzylsulfanyl-2-[(2-biphenyl-4-yl-6-methyl-pyrimidine-4-carbonyl)-amino]-propionic acid] was run?
Answer: > 100 µM

Question: What about the IC50 [2] of the same compound?
Answer: 59.2 µM

Question: And the IC50 [3]?
Answer: 17.7 µM

Question: What does the source list for `Cc1cc(C(=O)N[C@@H](COCc2ccccc2)C(=O)O)nc(-c2ccc(-c3ccccc3)cc2)n1` [Compound 36, (S)-3-Benzyloxy-2-[(2-biphenyl-4-yl-6-methyl-pyrimidine-4-carbonyl)amino]-propionic acid]?
Answer: IC50 [1]: > 100 µM; IC50 [2]: 79.6 µM; IC50 [3]: 32.7 µM

Question: How did the IC50 [1] turn out when `CC1CCN(c2cc(C(=O)N[C@@H](COCc3ccccc3)C(=O)O)nc(-c3ccc(Oc4ccccc4)cc3)n2)CC1` [Compound 38, (S)-3-Benzyloxy-2-{[6-(4-methylpiperidin-1-yl)-2-(4-phenoxyphenyl)pyrimidine-4-carbonyl]amino}propionic acid] was run?
Answer: 82.8 µM

Question: And the IC50 [2]?
Answer: 7.1 µM

Question: What about the IC50 [3] of the same compound?
Answer: 1.3 µM

Question: Which IC50 [1] does the source give for `CC1CCN(c2cc(C(=O)NC(Cc3ccc(Cl)cc3)C(=O)O)nc(-c3ccc(Oc4ccccc4)cc3)n2)CC1` (stereo not drawn) [Compound 39, 3-(4-Chlorophenyl)-2-{[6-(4-methylpiperidin-1-yl)-2-(4-phenoxyphenyl)-pyrimidine-4-carbonyl]amino}propionic acid] here?
Answer: 74.5 µM

Question: What about the IC50 [2] of the same compound?
Answer: 13.2 µM

Question: What about the IC50 [3] of the same compound?
Answer: 1.5 µM

Question: For `CC1CCN(c2cc(C(=O)N[C@@H](CSCc3ccccc3)C(=O)O)nc(-c3ccc(-c4ccccc4)cc3)n2)CC1` [Compound 40, (R)-3-Benzylsulfanyl-2-{[2-biphenyl-4-yl-6-(4-methylpiperidin-1-yl)pyrimidine-4-carbonyl]amino}propionic acid], which IC50 [1] is on record?
Answer: 61.2 µM

Question: What about the IC50 [2] of the same compound?
Answer: 23 µM

Question: What about the IC50 [3] of the same compound?
Answer: 5.1 µM

Question: How did the IC50 [1] turn out when `CC1CCN(c2cc(C(=O)N[C@@H](COCc3ccccc3)C(=O)O)nc(-c3ccc(-c4ccccc4)cc3)n2)CC1` [Compound 41, (S)-3-Benzyloxy-2-{[2-biphenyl-4-yl-6-(4-methylpiperidin-1-yl)pyrimidine-4-carbonyl]amino}propionic acid] was run?
Answer: 67.4 µM

Question: And the IC50 [2]?
Answer: 28.6 µM

Question: What about the IC50 [3] of the same compound?
Answer: 2.4 µM

Question: What does the source list for `CC1CCN(c2cc(C(=O)NC(Cc3ccc(Cl)cc3)C(=O)O)nc(-c3ccc(-c4ccccc4)cc3)n2)CC1` (stereo not drawn) [Compound 42, 2-{[2-Biphenyl-4-yl-6-(4-methylpiperidin-1-yl)pyrimidine-4-carbonyl]amino}-3-(4-chlorophenyl)propionic acid]?
Answer: IC50 [1]: > 100 µM; IC50 [2]: 22.3 µM; IC50 [3]: 4.8 µM

Question: How did the IC50 [1] turn out when `O=C(NC(Cc1ccc(Cl)cc1)C(=O)O)c1cc(-c2ccc(C(F)(F)F)cc2)nc(N2CCN(c3ccccn3)CC2)n1` (stereo not drawn) [Compound 43, 3-(4-Chlorophenyl)-2-{[2-(4-pyridin-2-yl-piperazin-1-yl)-6-(4-trifluoromethyl-phenyl)pyrimidine-4-carbonyl]amino}propionic acid] was run?
Answer: > 100 µM

Question: And the IC50 [2]?
Answer: 74.2 µM

Question: What about the IC50 [3] of the same compound?
Answer: 8.1 µM

Question: Which results are given for `CC1CCN(c2nc(C(=O)N[C@@H](COCc3ccccc3)C(=O)O)cc(N3CCN(c4nccc(C(F)(F)F)n4)CC3)n2)CC1` [Compound 47, (S)-3-Benzyloxy-2-({2-(4-methylpiperidin-1-yl)-6-[4-(4-trifluoromethylpyrimidin-2-yl)piperazin-1-yl]pyrimidine-4-carbonyl}amino)propionic acid]?
Answer: IC50 [1]: > 100 µM; IC50 [2]: 10.4 µM; IC50 [3]: 4.5 µM

Question: For `CC1CCN(c2nc(C(=O)NC(Cc3ccc(Cl)cc3)C(=O)O)cc(N3CCN(c4nccc(C(F)(F)F)n4)CC3)n2)CC1` (stereo not drawn) [Compound 48, 3-(4-Chlorophenyl)-2-({2-(4-methylpiperidin-1-yl)-6-[4-(4-trifluoromethyl-pyrimidin-yl)piperazin-1-yl]pyrimidine-4-carbonyl}amino)propionic acid], which IC50 [1] is on record?
Answer: > 100 µM

Question: What about the IC50 [2] of the same compound?
Answer: 40 µM

Question: What about the IC50 [3] of the same compound?
Answer: 1.3 µM

Question: With `CN(C)c1ccc(-c2nc(C(=O)N[C@@H](COCc3ccccc3)C(=O)O)cc(N3CCN(c4nccc(C(F)(F)F)n4)CC3)n2)cc1` [Compound 49, (S)-3-Benzyloxy-2-({2-(4-dimethylaminophenyl)-6-[4-(4-trifluoromethylpyrimidin-2-yl)piperazin-1-yl]pyrimidine-4-carbonyl}amino)propionic acid] as the compound, how does the IC50 [1] read?
Answer: 92.6 µM

Question: And the IC50 [2]?
Answer: 7.2 µM

Question: What about the IC50 [3] of the same compound?
Answer: 5.9 µM

Question: Which IC50 [1] does the source give for `O=C(N[C@@H](COCc1ccccc1)C(=O)O)c1cc(N2CCN(c3nccc(C(F)(F)F)n3)CC2)nc(-c2ccc([N+](=O)[O-])cc2)n1` [Compound 51, (S)-3-Benzyloxy-2-({2-(4-nitrophenyl)-6-[4-(4-trifluoromethylpyrimidin-2-yl)-piperazin-1-yl]pyrimidine-4-carbonyl}amino)propionic acid] here?
Answer: 55 µM

Question: What about the IC50 [2] of the same compound?
Answer: 84.5 µM

Question: What about the IC50 [3] of the same compound?
Answer: 1.9 µM

Question: How did the IC50 [1] turn out when `O=C(NC(Cc1ccc(Cl)cc1)C(=O)O)c1cc(N2CCN(c3nccc(C(F)(F)F)n3)CC2)nc(-c2ccc([N+](=O)[O-])cc2)n1` (stereo not drawn) [Compound 53, 3-(4-Chlorophenyl)-2-({2-(4-nitrophenyl)-6-[4-(4-trifluoromethylpyrimidin-2-yl)-piperazin-1-yl]pyrimidine-4-carbonyl}amino)propionic acid] was run?
Answer: 40.4 µM

Question: And the IC50 [2]?
Answer: 84.6 µM

Question: What about the IC50 [3] of the same compound?
Answer: 1.2 µM

Question: Which results are given for `O=C(NC(Cc1ccc(Cl)cc1)C(=O)O)c1cc(N2CCN(c3nccc(C(F)(F)F)n3)CC2)nc(-c2ccc(F)cc2)n1` (stereo not drawn) [Compound 56, 3-(4-Chlorophenyl)-2-({2-(4-fluorophenyl)-6-[4-(4-trifluoromethylpyrimidin-2-yl)-piperazin-1-yl]pyrimidine-4-carbonyl}amino)propionic acid]?
Answer: IC50 [1]: 55.4 µM; IC50 [2]: 4.5 µM; IC50 [3]: 2.2 µM

Question: `O=C(N[C@@H](COCc1ccccc1)C(=O)O)c1cc(N2CCN(c3nccc(C(F)(F)F)n3)CC2)nc(-c2ccoc2)n1` [Compound 60, (S)-3-Benzyloxy-2-({2-furan-3-yl-6-[4-(4-trifluoromethylpyrimidin-2-yl)piperazin-1yl]-pyrimidine-4-carbonyl}amino)propionic acid] was tested. Which IC50 [1] did it give?
Answer: > 100 µM

Question: And the IC50 [2]?
Answer: 15.6 µM

Question: What about the IC50 [3] of the same compound?
Answer: 16.4 µM

Question: `O=C(N[C@@H](CSCc1ccccc1)C(=O)O)c1cc(N2CCN(c3nccc(C(F)(F)F)n3)CC2)nc(-c2ccoc2)n1` [Compound 61, (R)-3-Benzylsulfanyl-2-({2-furan-3-yl-6-[4-(4-trifluoromethylpyrimidin-2-yl)-piperazin-1-yl]pyrimidine-4-carbonyl}amino)propionic acid] was tested. Which IC50 [1] did it give?
Answer: > 100 µM

Question: What about the IC50 [2] of the same compound?
Answer: 43.2 µM

Question: And the IC50 [3]?
Answer: 10.2 µM

Reference: patent US20050282824A1, “Substituted pyrimidines as inhibitors of bacterial type III protein secretion systems” (priority 2004, published 2005)
